Data published in patent EP4541815A1, “ANTIBODY AGAINST HEPATITIS B VIRUS, PREPARATION THEREOF AND USE THEREOF” (priority 2022, dated 2023).

Test system: HBV D genotype
Experiment: Antiviral activity in HBV-infected liver-humanized chimeric hFRG mouse model, plasma HBV DNA by qPCR
Assay type: in vivo
Conditions: hFRG mice
Description: To investigate the therapeutic efficacy of afuco-A14 GA LS against established HBV infection, the efficacy of afuco-A14 GA LS administered alone and in combination with entecavir, was evaluated in a liver-humanized chimeric hFRG (Fah^-/- Rag2^-/- /IL2rg^-/-) mouse model. Entecavir is a hepatitis B virus reverse transcriptase inhibitor that treats hepatitis B by inhibiting viral replication. The disadvantage of entecavir is the rebound of viral replication upon discontinuation of treatment.
A control group (saline), an afuco-A14 GA LS monotherapy group (10 mg/kg), an entecavir (ETV) monotherapy group (ETV, 0.1 mg/kg), and a combination therapy group of afuco-A14 GA LS (10 mg/kg) and entecavir (0.1 mg/kg) were set up in the experiment, respectively. Mice were administered (afuco-A14 GALS was administered subcutaneously and ETV was administered orally) starting on day 28 (D28) post HBV infection (HBV D genotype, 2 × 10^9 GE/mouse). Thereafter, afuco-A14 GA LS was administered subcutaneously once a week (D35, D42, D49, D56, D63, and D70), while ETV was administered once a day until D70. The observation period continued after discontinuation until D91.
Plasma from experimental mice was collected by venous blood sampling, and then qPCR was used to quantitatively detect the level of HBV DNA in the plasma of the mice. […]

C=C1[C@H](CO)[C@@H](O)C[C@@H]1n1cnc2c(=O)[nH]c(N)nc21 [ETV, entecavir]
reduction of mean viral titre at the end of the study (D91) compared to the starting point of treatment (D28) (21 days post-discontinuation, afuco-A14 GA LS 10 mg/kg s.c., ETV 0.1 mg/kg oral): 7.15 fold | decrease of viral DNA levels at the final dose (D70) (treatment D28 to D70, afuco-A14 GA LS 10 mg/kg s.c. once a week, ETV 0.1 mg/kg oral once a day, compared to control group (saline)): ~436 fold
